Where two headings read alike, the source gives them in different places.
Columns and labels:
[1] = system: Calu-3 cells; test: MTT cell viability assay on Calu-3 cells after exposure to test solutions; format: cell-based, Human; details: for Calu-3 model prediction (irritant if viability 50% and below) compared with European Union class / Calu-3 cells killed: 60 min exposure; for Calu-3 model prediction (irritant if viability 50% and below) compared with European Union class: ECVAM protocol; for Calu-3 %Viability ± SD: 60 min incubation, MTT, relative to negative control, n = 4; for Calu-3 cells killed: 0.2% w/v
Method: (§1) The Calu-3 cells were used at passages 5–10. They were cultured in 96-well plates (Fisher Scientific) in 1:1 DMEM/F-12 supplemented with 10% FBS, 1% Glutamax®, 100 U/mL penicillin, and […] streptomycin using our previously described method. The tissue culture medium was changed every two days.
(§2) Irritant selection, concentration and exposure time were based on mucociliary clearance time and published work in which the compounds were used. […] In order to provide a basis for comparison with other published work using other models three concentrations of the chemicals were selected (0.2%, 0.4% and 1.0%). To initiate the experiments, the cells were washed 3 times with PBS and allowed to equilibrate in 100 µL of buffered DMEM/F-12 (without phenol red) for 30 min. […] Cells were observed under the microscope for detachment before discarding the test solutions. Subsequently, the effect of the test compounds on the cells was determined using MTT assay.
(§3) Cell viability screening was based on cellular mitochondrial dehydrogenase (MDH) activity, measured by MTT reduction and conversion to blue formazan salt that was quantified after extraction from cells. MTT was used for predicting respiratory irritation because several studies have shown correlation between reduction in cell viability, decrease in epithelial electrical resistance and increases in biomarkers such as IL-1α and IL-1β. Cells grown in 96-well plates were used for the studies. After exposure of the cells to the solution of test compounds, the solutions were discarded and 100 μL of MTT (5.0 mg/mL) added to each well and incubated for 3 h at 37 °C. Subsequently, the MTT solution was removed and replaced with 100 μL isopropyl alcohol. The plates were then wrapped in aluminium foil and incubated for 2 h at 37 °C in order to extract formazan from the cells. Extracted formazan salt was quantified spectrophotometrically at 570 nm using Synergy™ HT multimode microplate reader (BioTek Instruments Incorporated). The absorbance of isopropyl alcohol (100 μL) was used as blank. The reduction of cell viability in treated cells was compared to negative control (cells incubated with DMEM/F-12) and expressed as a percentage.
(§4) Data acceptance criteria, calculation steps, interpretation and prediction model was done using the ECVAM Skin irritation Validation Study as contained in Standard Operating Procedure of Validation of the EpiSkin™ Test Method ^15 min–42 h for the prediction of acute skin irritation of chemicals. This was chosen because the model, as well as the cell viability assay method (MTT) has been accepted by intergovernmental agencies as being able to distinguish between irritants and non-irritants. However, we modified drug exposure time to reflect respiratory route of administration (15–60 min). […] Test compounds with mean relative viability values of 50% and below were considered irritant (I); those above 50% were considered non-irritant (NI) according to the ECVAM protocol.

[2] = set-up: method as in earlier work; details: ref [19],[20], cited from earlier work
[3] = system: eye; set-up: method as in PMID 12140180; details: ECETOC eye irritation data bank, ref [12], cited from earlier work; for European Union Irritation Class: R36 Irritating to Eye / European Union Irritation Class: Non-Irritating / European Union Irritation Class: R41 Risk of Serious Damage to Eye: tick = compound belongs to this class
[4] = system: Arion lusitanicus; set-up: method as in Adriaens and Remon (2002) [12]; details: slug mucosal irritation model; ref Adriaens and Remon (2002) [12]; cited from earlier work
[5] = MTT cell viability assay on Calu-3 cells after exposure to test solutions; format: cell-based, Human; details: human, 60 min incubation, MTT, relative to negative control, n = 4, read-out: Calu-3 %Viability ± SD; for viability at 60 min, 0.2 % w/v: 0.2% w/v test solution; for viability at 60 min, 1 % w/v: 1.0% w/v test solution
Method: as §1, §2, §3, §4

Compound	Calu-3 model prediction (irritant if viability 50% and below) compared with European Union class ([1]; 0.2% w/v test solution)	Calu-3 %Viability ± SD ([1]; 0.2% w/v test solution)	Calu-3 cells killed [1]	Calu-3 model prediction (irritant if viability 50% and below) compared with European Union class ([1]; 1.0% w/v test solution)	Calu-3 %Viability ± SD ([1]; 1.0% w/v test solution) [%]	Calu-3 %Viability ± SD ([1]; 1.0% w/v test solution, listed as sodium dodecyl sulphate USP)	Log p Octanol–Water [2]	European Union Class ([3]; as listed in Table 2)	European Union Class ([3]; as listed in Table 3)	European Union Irritation Class: R36 Irritating to Eye [3]	SMI model prediction compared with European Union class [4]	Calu-3 %Viability ± SD ([1]; 0.2% w/v test solution, listed as acetone)	Log p Octanol–Water ([2]; listed as acetone)	viability at 60 min, 0.2 % w/v ([5]; Calu-3 cells) [%]	viability at 60 min, 1 % w/v ([5]; Calu-3 cells) [%]	European Union Irritation Class: Non-Irritating [3]	viability at 60 min, 1 % w/v [5] [%]	European Union Irritation Class: R41 Risk of Serious Damage to Eye [3]	Calu-3 %Viability ± SD ([1]; 1.0% w/v test solution, listed as sodium hydroxide)
CCCCCCCCCCCCOS(=O)(=O)[O-].[Na+] [Sodium dodecyl sulphate USP]	correctly predicted	4.3 ± 0.1%	more than 90%	correctly predicted	9.0 ± 0.1	less than 17%	1.60	R36	R36	√	over-predictions								
CC(C)=O [Acetone]	false negative	100.4 ± 13.7%		false negatives	95.4 ± 16.5		−0.24	R36	R36	√	false negative	no significant effect on the cell viability	negative Log p values						
COCC(O)CO (stereo not drawn) [3-Methoxy-1,2-propanediol]	correctly predicted						−1.20							92.6 ± 4.1	90.7 ± 4.3	√			
CCCCCCCCCCCCCCCC[n+]1ccccc1 [Cetylpyridinium bromide]	correctly predicted			correctly predicted			1.83	R41	R41		correct predictions			8.1 ± 1.1	5.4 ± 0.6		< 17	√	
OC1CCCCC1 [Cyclohexanol]	false negatives	89.9 ± 14.3%		false negatives	78.7 ± 11.7		1.23	R41	R41									√	
Nc1ccc(F)cc1 [4-Fluoroaniline]	false negatives			false negatives				R41	R41					115 ± 5.9	75.6 ± 10.9			√	
CCCC(C)CO (stereo not drawn) [2-Methyl-1-pentanol]	correctly predicted	95.0 ± 13.1%		false positive			1.75							95.3 ± 13.1	2.9 ± 0.2	√			
O=C([O-])C(=O)[O-].[Na+].[Na+] [Sodium oxalate]	false negative	65.4 ± 4.0%		false negatives	64.5 ± 11.5			R41	R41									√	
[Na+].[OH-] [Sodium hydroxide]		4.6 ± 0.4%	about 95%	correctly predicted	14.9 ± 1.2		0	R41	R41									√	less than 17%
Cc1ccccc1 [Toluene]														85.7 ± 13	110 ± 6.6	√			
CC(=O)CC(C)C [Methyl isobutyl ketone]	correctly identified as non-irritant	no significant effect on the cell viability									wrongly classified			73.2 ± 7.4	90.3 ± 7.1	√			
c1c[nH]cn1 [Imidazole]								R41	R41										
OCC(O)CO [Glycerol]	correctly predicted													85.6 ± 8.7	86.5 ± 7	√			
PEG 600	correctly predicted	85.9 ± 13.4%			81.7 ± 10.8		−1.21									√			
Triton X-100	correctly predicted	3.5 ± 0.5%	more than 90%	correctly predicted			4.15	R36	R36	√	over-predictions								
CCO [Anhydrous ethanol]	correctly predicted	99.1 ± 3.9%			90.3 ± 8.0											√			
PEG 400	correctly predicted	91.5 ± 4.6%			92.2 ± 15.9		−1.21									√			
Tween 20	correctly predicted	57.1 ± 8.1%		false positive	43.9 ± 2.5		2.39				correct predictions					√			

From article PMC4085599, “Preliminary Studies on Validation of Calu-3 Cell Line as a Model for Screening Respiratory Mucosa Irritation and Toxicity” (Pharmaceutics, 2014)
